Test results as given in patent US6761896B1, “Skin cosmetic care system and method” (Unilever Home & Personal Care USA, division of Conopco, Inc., priority 1998, dated 2004).
Read-outs that look alike come from different tables or passages of the source.

Legend:
[1] = test system: normal human keratinocytes; assay: Keratinocyte proliferation measured by DNA content (monolayer cultures); type: cell-based
Method: The cells used in these studies are normal human keratinocytes and pig skin organ cultures. The normal human keratinocytes isolated from neonatal foreskins by trypsin treatment were growth in DME medium/5% fetal calf serum in the presence of mitomycin C treated 3T3 mouse fibroblasts of establishing dividing colonies. Keratinocytes were grown under these conditions until their third passage. For the experiments, third passage keratinocytes were plated into a serum-free keratincoyte growth medium (KGM; obtained form Clonetics, San Diego, Calif.) containing 0.15 mM calcium. Neonatal human fibroblasts were obtained from Clonetics and grown in Dulbecco's Minimum essential medium (DMEM) containing 10% fetal calf serum. Experiments were conducted in cells between passage numbers 4-10. Keratinocytes were plated in the middle 60 wells of 96 well plates (3000 cells/well). 24 hrs later, the plates were placed on top, in the middle of the magnet (bar or Bioflex) and grown for a further 4 days until the cells become 70-80% confluent. Medium was changed every 2 or 3 days. Control plates were placed on top of a nonmagnetic metal plate and the test plates were placed on top of the bar magnet (North or South side up) or in the middle of the Bioflex magnet. In some studies where the growth of cells were measured as a function of magnetic force, plates were placed on top of one another on top of the magnet such that the bottom plate is closest to the magnet (highest force) and the top plate is the furthest away from the magnet (lowest magnetic force). Studies to assess the effects of North and South magnets were carried out in different incubators to avoid the influence of one magnet on the other. After 4 days of growth, the plates were removed from the incubator, washed 2 times with phosphate buffered saline (PBS), and incubated with 100 ul of a bisbenzimide H 33258 solution (obtained from Calbiochem—stock solution was prepared at 1 mg/ml distilled water,'stored in dark at 4° C. for no longer than 1 week). After 15 min of incubation in the dark at room temperature, fluorescence was measured on a Millipore Cytofluor 2000b (ex/em=360/460 nm). The DNA content was calculated using a standard of calf thymus DNA and expressed as ug/well or as % of control wells which were not exposed to magnets. In all the studies using monolayer cultures mean+/−standard deviation of at least 24 different wells were used to calculate statistical significance using Students t-test. Example 3 evaluated the synergy between lactic acid and magnetic field in inducing the proliferation of keratinocytes. In this study, using in vitro keratinocyte cultures, 2 mM lactic acid increased proliferation by 5.4%. This increase was not statistically significant. […]

pig epidermal cells = assay: DNA synthesis (3H-thymidine) of pig skin organ cultures, epidermis; type: cell-based; details: for activity at 20 µM / activity at 200 µM / activity at 2000 µM: Sus scrofa, read-out: DNA synthesis AS % OF CONTROL
Method: Freshly excised 2-3 week old piglet skins were obtained from Buckshire Farms, Pa. The pig skins were washed exhaustively first with soap and then with 10× antibiotic containing medium (penicillin, streptomycin). The pig skins were then dermatomed at 200 microns thickness. Seven (7) mm punch biopsies were made from these washed pig skins. The biopsies are then washed again with the 10× antibiotic medium and finally with normal DMEM (2 washes). Three (3) biopsies were incubated in each transwell plates, epidermal side up, with 1 ml of serum free DMEM fed from the bottom of the plates. Experiments were started 3 days after the biopsies were equilibrated under these conditions. Three (3) days after equilibrating the pig skin organ cultures prepared as described above, the medium was removed, 1 ml of fresh medium was added, and the wells were treated with different concentrations of lactic acid by adding from a 100 fold concentrated stock in water, directly into the medium. Simultaneous with the addition of lactic acid, selected cultures were also exposed to the South or North pole of a bar magnet or to the Bioflex magnet. The magnets were placed on top of the culture dish to expose the epidermis directly (the organ culture is carried out with the epidermis side on top). Three (3) days later, medium was changed, lactic acid was re-added, and 10 uCi ^3H-thymidine was added to each well. Plates were incubated for a further 24 hrs. At the end of the incubation period, biopsies were removed, washed in PBS for 1 hr with shaking, and incubated overnight in 10 ml of 2M sodium bromide with shaking to split the epidermis from the dermis. The biopsies were washed with PBS, and the epidermis was peeled off from dermis carefully using a scalpel. The epidermis and dermis were digested with 1 ml of 0.5N NaOH overnight at 50 C, 200 ul was used for counting the radioactivity. The DNA synthesis rate was calculated as cpm/7 mm punch biopsy for dermis or epidermis and in some experiments expressed also as % of controls. All organ culture experiments were conducted with at least 6 replicates, and the mean+/−standard deviation was calculated for statistical analysis using Students t-test.

[2] = Example 5, 0.02 mM LA + South pole of bar magnet
[3] = Example 5, 0.02 mM LA, no magnet
[4] = Example 5, 0.2 mM LA + South pole of bar magnet
[5] = Example 5, 0.2 mM LA, no magnet
[6] = Example 5, 2.0 mM LA + South pole of bar magnet
[7] = Example 5, 2.0 mM LA, no magnet
[8] = Example 6, 0.2 mM LA + North pole
[9] = Example 6, 0.2 mM LA + South pole
[10] = Example 6, 0.2 mM LA, no magnet

Question: Which “DNA content, Average” value ([1]; 2 mM lactic acid + BIOflex magnet) does the source give for `CC(O)C(=O)O` (stereo not shown) [LA, lactic acid] here?
Answer: The value was 277.

Question: What about the “stimulation of keratinocyte proliferation” value ([1]; 2 mM lactic acid in the presence of BIOflex magnet, statistically significant) of the same compound?
Answer: The value was 15%.

Question: What about the “DNA content, Average” value ([1]; 2 mM lactic acid, no magnet) of the same compound?
Answer: The value was 254.

Question: And the “increase in keratinocyte proliferation” value ([1]; 2 mM lactic acid, no magnet, not statistically significant)?
Answer: Its value is 5.4%.

Question: What about the “DNA SYNTHESIS (CPM/BIOPSY) MEAN +/- STD” value (pig epidermal cells; [2]) of the same compound?
Answer: The value was 7915 +/− 2807 CPM/BIOPSY.

Question: What about the “DNA SYNTHESIS (CPM/BIOPSY) MEAN +/- STD” value (pig epidermal cells; [3]) of the same compound?
Answer: The value was 4670 +/− 497 CPM/BIOPSY.

Question: What about the “DNA SYNTHESIS (CPM/BIOPSY) MEAN +/- STD” value (pig epidermal cells; [4]) of the same compound?
Answer: The value was 8402 +/− 512 CPM/BIOPSY.

Question: And the “DNA SYNTHESIS (CPM/BIOPSY) MEAN +/- STD” value (pig epidermal cells; [5])?
Answer: The value was 5030 +/− 958 CPM/BIOPSY.

Question: What about the “epidermal proliferation, % over control” value (pig epidermal cells; Example 5, 2 mM LA + South pole) of the same compound?
Answer: The value was 165%.

Question: What about the “DNA SYNTHESIS (CPM/BIOPSY) MEAN +/- STD” value (pig epidermal cells; [6]) of the same compound?
Answer: Its value is 11523 +/− 2123 CPM/BIOPSY.

Question: What about the “synergy of LA and South pole on epidermal proliferation” value (pig epidermal cells; Example 5, 2 mM LA + South pole vs additive response) of the same compound?
Answer: Its value is “Synergies were observed”.

Question: What about the “epidermal proliferation, % over control” value (pig epidermal cells; Example 5, 2 mM LA alone) of the same compound?
Answer: Its value is 43%.

Question: And the “DNA SYNTHESIS (CPM/BIOPSY) MEAN +/- STD” value (pig epidermal cells; [7])?
Answer: Its value is 6216 +/− 1035 CPM/BIOPSY.

Question: What about the “effect on epidermal proliferation” value (pig epidermal cells; Example 5, 0.02 and 0.2 mM lactic acid, no magnet) of the same compound?
Answer: Its value is “no significant effect”.

Question: What about the “DNA SYNTHESIS (CPM/BIOPSY) MEAN +/- STD” value (pig epidermal cells; [8]) of the same compound?
Answer: Its value is 69726 +/− 29913 CPM/BIOPSY.

Question: And the “proliferative response, % over control” value (pig epidermal cells; [8])?
Answer: The value was 112%.

Question: What about the “synergy of LA with North pole on epidermal proliferation” value (pig epidermal cells; Example 6, 0.2 mM LA + North pole vs north alone control) of the same compound?
Answer: Its value is “not synergistic”.

Question: And the “DNA SYNTHESIS (CPM/BIOPSY) MEAN +/- STD” value (pig epidermal cells; [9])?
Answer: The value was 81393 +/− 11738 CPM/BIOPSY.

Question: What about the “proliferative response, % over control” value (pig epidermal cells; [9]) of the same compound?
Answer: The value was 146%.

Question: What about the “synergy of LA with South pole on epidermal proliferation” value (pig epidermal cells; Example 6, 0.2 mM LA + South pole vs LA alone or South pole alone) of the same compound?
Answer: Its value is “synergistic”.

Question: And the “DNA SYNTHESIS (CPM/BIOPSY) MEAN +/- STD” value (pig epidermal cells; [10])?
Answer: Its value is 41076 +/− 24767 CPM/BIOPSY.

Question: What about the “effect on epidermal proliferation” value (pig epidermal cells; Example 6, 0.2 mM Lactic acid alone) of the same compound?
Answer: The value was “no significant effect”.

Question: And the activity at 20 µM (pig epidermal cells; [2])?
Answer: The activity at 20 µM was 182%.

Question: And the activity at 20 µM (pig epidermal cells; [3])?
Answer: The activity at 20 µM was 107%.

Question: What about the activity at 200 µM (pig epidermal cells; [4]) of the same compound?
Answer: The activity at 200 µM was 193%.

Question: What about the activity at 200 µM (pig epidermal cells; [5]) of the same compound?
Answer: Its activity at 200 µM is 115%.

Question: What about the activity at 2000 µM (pig epidermal cells; [6]) of the same compound?
Answer: Its activity at 2000 µM is 265%.

Question: What about the activity at 2000 µM (pig epidermal cells; [7]) of the same compound?
Answer: The activity at 2000 µM was 143%.

Question: What about the activity at 200 µM (pig epidermal cells; [8]) of the same compound?
Answer: Its activity at 200 µM is 211%.

Question: And the activity at 200 µM (pig epidermal cells; [9])?
Answer: The activity at 200 µM was 246%.

Question: What about the activity at 200 µM (pig epidermal cells; [10]) of the same compound?
Answer: Its activity at 200 µM is 124%.
